Measured values: patent US9351974B2, “Substituted pteridinones for the treatment of cancer” (OSI Pharmaceuticals, LLC, priority 2011, dated 2016)

Biological target: T1, His-tagged full-length RSK2 (RPS6KA3) (Homo sapiens, UniProt P51812)
T1 construct: His-tagged full-length RSK2 (RPS6KA3, Invitrogen PV3323); His; purchased Invitrogen PV3323
Test: RSK2 Omnia Assay for compound IC50 determination
Type: biochemical
Conditions: ATP 15 μM, n=2, read-out: Mean RSK2 Biochem IC50
Outline: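 Initial-rate slopes from continuous kinetic reads were fitted to a four-parameter equation for IC50 (n=2). Ki was then derived by Cheng-Prusoff assuming ATP-competitive inhibition. Reactions contained 15 μM ATP (Km 16.3 μM), 5 μM Omnia ST Peptide 6, and […] in 50 mM HEPES pH 7.5, 10 mM MgCl2, 1 mM DTT, 1% DMSO. Compounds spanned 11 threefold steps, […] final.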

T1 sequence (P51812 whole entry): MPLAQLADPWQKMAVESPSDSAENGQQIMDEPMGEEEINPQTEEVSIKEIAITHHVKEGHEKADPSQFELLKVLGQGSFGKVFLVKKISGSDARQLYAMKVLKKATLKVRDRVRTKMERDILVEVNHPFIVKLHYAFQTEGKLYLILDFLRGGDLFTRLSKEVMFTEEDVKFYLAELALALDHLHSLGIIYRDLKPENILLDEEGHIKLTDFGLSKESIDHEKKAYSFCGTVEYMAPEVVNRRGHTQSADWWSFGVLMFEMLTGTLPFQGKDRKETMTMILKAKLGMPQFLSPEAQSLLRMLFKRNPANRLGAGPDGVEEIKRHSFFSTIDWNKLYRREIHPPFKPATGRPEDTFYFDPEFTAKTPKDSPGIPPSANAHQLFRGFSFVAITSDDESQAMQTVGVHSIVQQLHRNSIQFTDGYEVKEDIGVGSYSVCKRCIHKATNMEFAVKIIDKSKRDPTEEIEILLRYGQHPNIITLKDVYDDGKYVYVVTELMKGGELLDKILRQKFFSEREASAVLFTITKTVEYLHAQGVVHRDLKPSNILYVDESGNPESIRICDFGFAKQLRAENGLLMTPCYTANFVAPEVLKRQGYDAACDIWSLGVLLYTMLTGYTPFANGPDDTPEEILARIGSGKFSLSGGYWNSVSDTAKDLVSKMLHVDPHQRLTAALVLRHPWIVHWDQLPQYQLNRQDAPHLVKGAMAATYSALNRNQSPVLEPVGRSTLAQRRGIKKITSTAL

Compound | IC50
CC(C)CCn1c(=O)c(=O)n(-c2ccccc2)c2cnc(Nc3ccc4[nH]ncc4c3)nc21 [Example 305, 2-(1H-indazol-5-ylamino)-8-(3-methylbutyl)-5-phenyl-5,8-dihydropteridine-6,7-dione] | > 1000 nM
CC(C)Oc1ccc(N2C(=O)[C@@H](C)N(C3CCOCC3)c3nc(Nc4cc(F)c5[nH]ncc5c4)ncc32)cc1C#N [compound 196, 5-[(7R)-2-[(7-fluoro-1H-indazol-5-yl)amino]-7-methyl-6-oxo-8-(tetrahydro-2H-pyran-4-yl)-7,8-dihydropteridin-5(6H)-yl]-2-(propan-2-yloxy)benzonitrile] | ≤ 100 nM
COc1ccc(N2C(=O)[C@@H](C)N(C3CCOCC3)c3nc(Nc4cc(F)c5[nH]ncc5c4)ncc32)cn1 [compound 192, (7R)-2-[(7-fluoro-1H-indazol-5-yl)amino]-5-(6-methoxypyridin-3-yl)-7-methyl-8-(tetrahydro-2H-pyran-4-yl)-7,8-dihydropteridin-6(5H)-one] | ≤ 100 nM
C[C@@H]1C(=O)N(c2ccccc2)c2cnc(Nc3ccc4[nH]ncc4c3)nc2N1Cc1ccccc1 [Example 76, (7R)-8-benzyl-2-(1H-indazol-5-ylamino)-7-methyl-5-phenyl-7,8-dihydropteridin-6(5H)-one] | ≤ 100 nM
C[C@@H]1C(=O)N(c2cccc(C#N)c2)c2cnc(Nc3cc(F)c(O)c(F)c3)nc2N1C1CCC(F)(F)CC1 [compound 276, 3-[(7R)-8-(4,4-difluorocyclohexyl)-2-[(3,5-difluoro-4-hydroxyphenyl)amino]-7-methyl-6-oxo-7,8-dihydropteridin-5(6H)-yl]benzonitrile] | ≤ 100 nM
COc1ccc(N2C(=O)[C@@H](C)N(C3CCOCC3)c3nc(Nc4cc(F)c5[nH]c(=O)oc5c4)ncc32)cc1C#N [compound 203, 5-[(7R)-2-[(4-fluoro-2-oxo-2,3-dihydro-1,3-benzoxazol-6-yl)amino]-7-methyl-6-oxo-8-(tetrahydro-2H-pyran-4-yl)-7,8-dihydropteridin-5(6H)-yl]-2-methoxybenzonitrile] | ≤ 100 nM
COc1ccc(N2C(=O)[C@@H](C)N(C3CCOCC3)c3nc(Nc4cnc5[nH]ncc5c4)ncc32)cc1C#N [compound 200, 2-methoxy-5-[(7R)-7-methyl-6-oxo-2-(1H-pyrazolo[3,4-b]pyridin-5-ylamino)-8-(tetrahydro-2H-pyran-4-yl)-7,8-dihydropteridin-5(6H)-yl]benzonitrile] | ≤ 100 nM
CC(C)CCN1c2nc(Nc3cc(F)c4[nH]ncc4c3)ncc2N(c2cccnc2)C(=O)[C@H]1C [Example 87, (7R)-2-[(7-fluoro-1H-indazol-5-yl)amino]-7-methyl-8-(3-methylbutyl)-5-(pyridin-3-yl)-7,8-dihydropteridin-6(5H)-one] | ≤ 100 nM
COc1ccc(N2C(=O)[C@@H](C)N(C3CCC(C)(C)CC3)c3nc(Nc4cc(F)c5[nH]ncc5c4)ncc32)cc1OC [Example 210, (7R)-5-(3,4-dimethoxyphenyl)-8-(4,4-dimethylcyclohexyl)-2-[(7-fluoro-1H-indazol-5-yl)amino]-7-methyl-7,8-dihydropteridin-6(5H)-one] | ≤ 100 nM
C[C@@H]1C(=O)N(c2cccc(C#N)c2)c2cnc(Nc3ccc(C(=O)O)cc3)nc2N1C1CCC(F)(F)CC1 [compound 269, 4-{[(7R)-5-(3-cyanophenyl)-8-(4,4-difluorocyclohexyl)-7-methyl-6-oxo-5,6,7,8-tetrahydropteridin-2-yl]amino}benzoic acid] | ≤ 100 nM
[2H]C1([2H])C(N2c3nc(Nc4cc(F)c5[nH]ncc5c4)ncc3N(c3cccc(C#N)c3)C(=O)[C@H]2C)C([2H])([2H])C([2H])([2H])C([2H])([2H])C1([2H])[2H] [compound 302, 3-[(7R)-8-[(2,2,3,3,4,4,5,5,6,6-2H10)cyclohexyl]-2-[(7-fluoro-1H-indazol-5-yl)amino]-7-methyl-6-oxo-7,8-dihydropteridin-5(6H)-yl]benzonitrile] | ≤ 100 nM
[2H]C1([2H])C(N2c3nc(Nc4cc(F)c5[nH]ncc5c4)ncc3N(c3ccc(OC)c(OC)c3)C(=O)[C@H]2C)C([2H])([2H])C([2H])([2H])C([2H])([2H])C1([2H])[2H] [compound 300, (7R)-8-[(2,2,3,3,4,4,5,5,6,6-2H10)cyclohexyl]-5-(3,4-dimethoxyphenyl)-2-[(7-fluoro-1H-indazol-5-yl)amino]-7-methyl-7,8-dihydropteridin-6(5H)-one] | ≤ 100 nM

Second part, the molecule after the results:

IC50 | Compound
≤ 100 nM | C[C@@H]1C(=O)N(c2ccc(N3CCN(C)CC3)c(C#N)c2)c2cnc(Nc3cc(F)c4[nH]ncc4c3)nc2N1C1CCCCC1 [compound 173, 5-[(7R)-8-cyclohexyl-2-[(7-fluoro-1H-indazol-5-yl)amino]-7-methyl-6-oxo-7,8-dihydropteridin-5(6H)-yl]-2-(4-methylpiperazin-1-yl)benzonitrile]
≤ 100 nM | C[C@@H]1C(=O)N(c2ccn(C)c(=O)c2)c2cnc(Nc3cnc4[nH]ncc4c3)nc2N1C1CCCCC1 [compound 175, (7R)-8-cyclohexyl-7-methyl-5-(1-methyl-2-oxo-1,2-dihydropyridin-4-yl)-2-(1H-pyrazolo[3,4-b]pyridin-5-ylamino)-7,8-dihydropteridin-6(5H)-one]
≤ 100 nM | C[C@@H]1C(=O)N(c2cccc(C#N)c2)c2cnc(Nc3cc(F)c4[nH]ncc4c3)nc2N1C1CCOCC1 [compound 186, 3-[(7R)-2-[(7-fluoro-1H-indazol-5-yl)amino]-7-methyl-6-oxo-8-(tetrahydro-2H-pyran-4-yl)-7,8-dihydropteridin-5(6H)-yl]benzonitrile]
≤ 100 nM | C[C@@H]1C(=O)N(c2cnc3ccccc3c2)c2cnc(Nc3ccc4[nH]ncc4c3)nc2N1C1CCCCC1 [Example 50, (7R)-8-cyclohexyl-2-(1H-indazol-5-ylamino)-7-methyl-5-(quinolin-3-yl)-7,8-dihydropteridin-6(5H)-one]
> 1000 nM | C[C@@H]1C(=O)N(c2ccccc2)c2cnc(Nc3ccc4[nH]ncc4c3)nc2N1CC1CCNCC1 [Example 78, (7R)-2-(1H-indazol-5-ylamino)-7-methyl-5-phenyl-8-(piperidin-4-ylmethyl)-7,8-dihydropteridin-6(5H)-one]
≤ 100 nM | N#Cc1cccc(N2C(=O)[C@@H](CF)N(C3CCCC3)c3nc(Nc4ccc5[nH]ncc5c4)ncc32)c1 [Example 222, 3-[(7S)-8-cyclopentyl-7-(fluoromethyl)-2-(1H-indazol-5-ylamino)-6-oxo-7,8-dihydropteridin-5(6H)-yl]benzonitrile]
≤ 100 nM | C[C@@H]1C(=O)N(c2cccc(C#N)c2)c2cnc(Nc3ccc4[nH]c(=O)oc4c3)nc2N1C1CCC(F)(F)CC1 [compound 266, 3-[(7R)-8-(4,4-difluorocyclohexyl)-7-methyl-6-oxo-2-[(2-oxo-2,3-dihydro-1,3-benzoxazol-6-yl)amino]-7,8-dihydropteridin-5(6H)-yl]benzonitrile]
100 to 1000 nM | C[C@@H]1C(=O)N(c2cccc(C#N)c2)c2cnc(Nc3ccc4c(c3)CS(=O)(=O)N4)nc2N1[C@H]1CC[C@H](C)CC1 [compound 250, 3-[(7R)-2-[(2,2-dioxido-1,3-dihydro-2,1-benzothiazol-5-yl)amino]-7-methyl-8-(trans-4-methylcyclohexyl)-6-oxo-7,8-dihydropteridin-5(6H)-yl]benzonitrile]
≤ 100 nM | C[C@@H]1C(=O)N(c2cccc(C#N)c2)c2cnc(Nc3ccc4[nH]ncc4c3)nc2N1C1CCC(F)(F)CC1 [compound 261, 3-[(7R)-8-(4,4-difluorocyclohexyl)-2-(1H-indazol-5-ylamino)-7-methyl-6-oxo-7,8-dihydropteridin-5(6H)-yl]benzonitrile]
≤ 100 nM | C[C@@H]1C(=O)N(c2cccc(C(F)(F)F)c2)c2cnc(Nc3ccc4[nH]ncc4c3)nc2N1C1CCCCC1 [Example 36, (7R)-8-cyclohexyl-2-(1H-indazol-5-ylamino)-7-methyl-5-[3-(trifluoromethyl)phenyl]-7,8-dihydropteridin-6(5H)-one]
≤ 100 nM | Cc1ccc(N2C(=O)[C@@H](C)N(C3CCCCC3)c3nc(Nc4ccc5[nH]ncc5c4)ncc32)cc1F [compound 121, (7R)-8-cyclohexyl-5-(3-fluoro-4-methylphenyl)-2-(1H-indazol-5-ylamino)-7-methyl-7,8-dihydropteridin-6(5H)-one]
≤ 100 nM | C[C@@H]1C(=O)N(c2ccccc2)c2cnc(Nc3ccc4[nH]ncc4c3)nc2N1C1CCCCC1 [Example 18, (7R)-8-cyclohexyl-2-(1H-indazol-5-ylamino)-7-methyl-5-phenyl-7,8-dihydropteridin-6(5H)-one]
≤ 100 nM | C[C@@H]1C(=O)N(c2cccc(C#N)c2)c2cnc(Nc3ccc4[nH]ncc4c3F)nc2N1C1CCCCC1 [compound 100, 3-[(7R)-8-cyclohexyl-2-[(4-fluoro-1H-indazol-5-yl)amino]-7-methyl-6-oxo-7,8-dihydropteridin-5(6H)-yl]benzonitrile]
≤ 100 nM | C[C@@H]1C(=O)N(c2cccc(C#N)c2)c2cnc(Nc3ccc(C(N)=O)c(F)c3)nc2N1C1CCC(F)(F)CC1 [compound 272, 4-{[(7R)-5-(3-cyanophenyl)-8-(4,4-difluorocyclohexyl)-7-methyl-6-oxo-5,6,7,8-tetrahydropteridin-2-yl]amino}-2-fluorobenzamide]
≤ 100 nM | C[C@@H]1C(=O)N(c2cccc(F)c2)c2cnc(Nc3cc(F)c4[nH]ncc4c3)nc2N1C1CCC(C)(C)CC1 [Example 211, (7R)-8-(4,4-dimethylcyclohexyl)-2-[(7-fluoro-1H-indazol-5-yl)amino]-5-(3-fluorophenyl)-7-methyl-7,8-dihydropteridin-6(5H)-one]
≤ 100 nM | CC1C(=O)N(c2ccccc2)c2cnc(Nc3ccc4c(c3)CC(=O)N4)nc2N1C1CCCCC1 (stereo not shown) [Example 60, 8-cyclohexyl-7-methyl-2-[(2-oxo-2,3-dihydro-1H-indol-5-yl)amino]-5-phenyl-7,8-dihydropteridin-6(5H)-one]
